Patent US9694016B2 (Novartis AG, priority 2013, dated 2017)
pIC50: −log10 of the molar value. Read-outs that look alike come from different tables or passages of the source.

Molecular target: b-Raf (V600E) (Homo sapiens (Human), UniProt P15056, V600E)
Settings: read-out: b-Raf IC-50, AlphaScreen
[1] = 60 min pre-incubation, 3 hours reaction
[2] = 60 min pre-incubation, reaction 3 hours at room temperature

Chain of b-Raf (V600E) (P15056 whole entry V600E): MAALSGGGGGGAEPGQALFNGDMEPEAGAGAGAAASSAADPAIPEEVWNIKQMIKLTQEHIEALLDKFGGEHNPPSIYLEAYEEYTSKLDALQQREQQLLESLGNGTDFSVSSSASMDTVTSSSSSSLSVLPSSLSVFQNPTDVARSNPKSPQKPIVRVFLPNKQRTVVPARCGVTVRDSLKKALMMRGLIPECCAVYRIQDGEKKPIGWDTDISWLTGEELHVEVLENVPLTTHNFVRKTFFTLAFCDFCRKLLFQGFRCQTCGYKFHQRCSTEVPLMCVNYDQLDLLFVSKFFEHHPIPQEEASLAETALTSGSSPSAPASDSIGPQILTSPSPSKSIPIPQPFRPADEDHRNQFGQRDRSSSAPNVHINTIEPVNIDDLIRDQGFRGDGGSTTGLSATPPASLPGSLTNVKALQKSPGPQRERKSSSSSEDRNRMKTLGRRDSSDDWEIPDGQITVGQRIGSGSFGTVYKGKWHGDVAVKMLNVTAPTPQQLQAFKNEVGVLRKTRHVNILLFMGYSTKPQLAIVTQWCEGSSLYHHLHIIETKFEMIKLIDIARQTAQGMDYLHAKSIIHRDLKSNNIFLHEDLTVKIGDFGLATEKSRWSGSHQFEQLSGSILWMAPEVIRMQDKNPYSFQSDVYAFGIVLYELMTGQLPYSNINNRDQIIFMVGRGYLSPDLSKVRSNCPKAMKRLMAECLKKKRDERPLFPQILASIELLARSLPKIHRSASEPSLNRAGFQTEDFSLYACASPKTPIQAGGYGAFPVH

| Compound | pIC50 [1] | pIC50 (Table 2, 3 hours reaction) | other results |
| --- | --- | --- | --- |
| Cc1ncc(C(=O)Nc2cccc(C(F)F)c2)cc1-c1cc(N2CCOCC2)c(=O)n(C)c1 [Example 445, N-(3-(difluoromethyl)phenyl)-1′,2-dimethyl-5′-morpholino-6′-oxo-1′,6′-dihydro-[3,3′-bipyridine]-5-carboxamide] | 7.92 | – | – |
| COc1cccc(NC(=O)c2ccc(C)c(-c3cc(N4CCOCC4)c(=O)n(C)c3)c2)c1 [Example 440, N-(3-methoxyphenyl)-4-methyl-3-(1-methyl-5-morpholino-6-oxo-1,6-dihydropyridin-3-yl)benzamide] | 7.03 | – | – |
| CCOc1nnc(-c2cc(NC(=O)c3ccc(CNC)c(C(F)(F)F)c3)cnc2C)cc1N1CCOCC1 [Example 626, N-(5-(6-ethoxy-5-morpholinopyridazin-3-yl)-6-methylpyridin-3-yl)-4-((methylamino)methyl)-3-(trifluoromethyl)benzamide] | 7.85 | – | – |
| CNCCN(C)c1cc(C(=O)Nc2ccc(C)c(-c3cc(N4CCOCC4)c(=O)n(C)c3)c2)ccn1 [Example 457, 2-(methyl(2-(methylamino)ethyl)amino)-N-(4-methyl-3-(1-methyl-5-morpholino-6-oxo-1,6-dihydropyridin-3-yl)phenyl)isonicotinamide] | 7.52 | – | – |
| Cc1ccc(NC(=O)c2ccccc2)cc1-c1cc(N2CCOCC2)n(C)c(=O)c1 [Example 473, N-(4-methyl-3-(1-methyl-6-morpholino-2-oxo-1,2-dihydropyridin-4-yl)phenyl)benzamide] | 7.92 | – | – |
| Cc1ccc(NC(=O)c2ccnc(C3CC3)c2)cc1-c1cc(N2CCOCC2)c(=O)n(C)c1 [Example 354, 2-cyclopropyl-N-(4-methyl-3-(1-methyl-5-morpholino-6-oxo-1,6-dihydropyridin-3-yl)phenyl)isonicotinamide] | – | 9.00 | – |
| Cc1ccc(NC(=O)c2cccc(C(F)(F)F)c2)cc1-c1cc(N2CCOCC2)c(=O)n(C)n1 [Example 164, N-(4-methyl-3-(1-methyl-5-morpholino-6-oxo-1,6-dihydropyridazin-3-yl)phenyl)-3-(trifluoromethyl)benzamide] | – | 8.77 | – |
| Cc1ccc(C(=O)Nc2cccc(C(F)(F)F)c2)cc1-c1cc(N2CCS(=O)(=O)CC2)nc(N2CCOCC2)n1 [Example 7, 3-(6-(1,1-dioxidothiomorpholino)-2-morpholinopyrimidin-4-yl)-4-methyl-N-(3-(trifluoromethyl)phenyl)benzamide] | – | 8.60 | – |
| Cc1ncc(NC(=O)c2cc(C(C)(C)C#N)ccn2)cc1-c1cnc(OC(C)C)c(N2CCOCC2)c1 [Example 958, 4-(2-cyanopropan-2-yl)-N-(6′-isopropoxy-2-methyl-5′-morpholino-[3,3′-bipyridin]-5-yl)picolinamide] | – | – | pIC50 [2]: 8.04 |
| Cc1ccc(NC(=O)c2cc(C(F)(F)F)ccn2)cc1-c1cc(N2CCOCC2)c(S(C)(=O)=O)nn1 [Example 933, N-(4-methyl-3-(6-(methylsulfonyl)-5-morpholinopyridazin-3-yl)phenyl)-4-(trifluoromethyl)picolinamide] | – | – | pIC50 [2]: 9.11 |
| Cc1ccc(C(=O)Nc2cccc(C(C)(C)C#N)c2)cc1-c1cc(N2CCOCC2)c(=O)n(C)c1 [Example 431, N-(3-(2-cyanopropan-2-yl)phenyl)-4-methyl-3-(1-methyl-5-morpholino-6-oxo-1,6-dihydropyridin-3-yl)benzamide] | – | 8.43 | – |
| Cc1ncc(NC(=O)c2ccnc(C(C)(C)F)c2)cc1-c1cc(NCCO)nc(N2CCOC[C@H]2C)c1 [Example 1138, (R)-2-(2-fluoropropan-2-yl)-N-(2′-((2-hydroxyethyl)amino)-2-methyl-6′-(3-methylmorpholino)-[3,4′-bipyridin]-5-yl)isonicotinamide] | – | – | pIC50 [2]: 7.56 |
| Cc1ncc(NC(=O)c2ccnc(C3CC3)c2)cc1-c1cc(N2CCOCC2)nc(N2CC(C)(O)C2)c1 [Example 1102, 2-cyclopropyl-N-(2′-(3-hydroxy-3-methylazetidin-1-yl)-2-methyl-6′-morpholino-[3,4′-bipyridin]-5-yl)isonicotinamide] | – | – | pIC50 [2]: 8.35 |
| CCN1CCN(c2cc(C(=O)Nc3cnc(C)c(-c4cc(N5CCOCC5)c(=O)n(C)c4)c3)cc(C(F)(F)F)c2)CC1 [Example 402, N-(1′,2-dimethyl-5′-morpholino-6′-oxo-1′,6′-dihydro-[3,3′-bipyridin]-5-yl)-3-(4-ethylpiperazin-1-yl)-5-(trifluoromethyl)benzamide] | – | 7.00 | – |
| Cc1ncc(NC(=O)c2cnnc(C(F)(F)F)c2)cc1-c1cc(N2CCOCC2)c(OC2CCOCC2)nn1 [Example 631, N-(6-methyl-5-(5-morpholino-6-((tetrahydro-2H-pyran-4-yl)oxy)pyridazin-3-yl)pyridin-3-yl)-6-(trifluoromethyl)pyridazine-4-carboxamide] | 8.57 | – | – |
| Cc1ccc(NC(=O)c2cccc(C(F)(F)F)c2)cc1-c1cc(N2CCOCC2)nc(N2C(=O)OC[C@@H]2C)n1 [Example 783, (S)—N-(4-methyl-3-(2-(4-methyl-2-oxooxazolidin-3-yl)-6-morpholinopyrimidin-4-yl)phenyl)-3-(trifluoromethyl)benzamide] | 8.20 | – | – |
| CCOc1nnc(-c2cc(NC(=O)c3cnnc(C(F)(F)F)c3)ccc2C)cc1N1CCOCC1 [Example 570, N-(3-(6-ethoxy-5-morpholinopyridazin-3-yl)-4-methylphenyl)-6-(trifluoromethyl)pyridazine-4-carboxamide] | 9.10 | – | – |
| Cc1ccc(NC(=O)c2cccc(C(C)(C)S(C)(=O)=O)c2)cc1-c1cc(N2CCOCC2)c(=O)n(C)c1 [Example 351, N-(4-methyl-3-(1-methyl-5-morpholino-6-oxo-1,6-dihydropyridin-3-yl)-phenyl)-3-(2-(methylsulfonyl)propan-2-yl)benzamide] | – | 7.71 | – |
| CCNc1nc(-c2cc(NC(=O)c3cccc(C(C)(F)F)c3)ccc2C)cc(N2CCOCC2)n1 [Example 701, 3-(1,1-difluoroethyl)-N-(3-(2-(ethylamino)-6-morpholinopyrimidin-4-yl)-4-methylphenyl)benzamide] | 8.89 | – | – |
| Cc1ccc(NC(=O)c2ccnc(C(F)(F)F)c2)cc1-c1cnc(OCCO)c(N2CCOCC2)c1 [Example 1002, N-(3-(6-(2-hydroxyethoxy)-5-morpholinopyridin-3-yl)-4-methylphenyl)-2-(trifluoromethyl)isonicotinamide] | – | – | pIC50 [2]: 8.76 |
| Cc1ncc(NC(=O)c2cc(CN(C)C)cc(C(F)(F)F)c2)cc1-c1cc(N2CCOCC2)nc(N2CC(O)C2)c1 [Example 1085, 3-((dimethylamino)methyl)-N-(2′-(3-hydroxyazetidin-1-yl)-2-methyl-6′-morpholino-[3,4′-bipyridin]-5-yl)-5-(trifluoromethyl)benzamide] | – | – | pIC50 [2]: 6.97 |

The next lines start with results.

| pIC50 [1] | pIC50 (Table 2, 3 hours reaction) | Compound | other results |
| --- | --- | --- | --- |
| 7.41 | – | Cc1ncc(NC(=O)c2ccnc(C(C)(C)C#N)c2)cc1-c1cc(N2CCOCC2)nc(NC[C@@H](C)O)n1 [Example 742, (R)-2-(2-cyanopropan-2-yl)-N-(5-(2-((2-hydroxypropyl)amino)-6-morpholinopyrimidin-4-yl)-6-methylpyridin-3-yl)isonicotinamide] | – |
| – | 8.33 | Cc1ncc(NC(=O)c2cccc(C(F)(F)F)c2)cc1-c1cc(N2CCOCC2)c(=O)n(C)c1 [Example 138, N-(1′,2-dimethyl-5′-morpholino-6′-oxo-1′,6′-dihydro-[3,3′-bipyridin]-5-yl)-3-(trifluoromethyl)benzamide] | – |
| 8.57 | – | COc1nnc(-c2cc(NC(=O)c3ccnc(C(F)(F)F)c3)cnc2C)cc1N1CCOCC1 [Example 605, N-(5-(6-methoxy-5-morpholinopyridazin-3-yl)-6-methylpyridin-3-yl)-2-(trifluoromethyl)isonicotinamide] | – |
| – | 8.74 | Cc1ncc(NC(=O)c2cccc(C(F)(F)F)c2)cc1-c1cnc(OCC(F)F)c(N2CCOCC2)c1 [Example 227, N-(6′-(2,2-difluoroethoxy)-2-methyl-5′-morpholino-[3,3′-bipyridin]-5-yl)-3-(trifluoromethyl)benzamide] | – |
| 9.10 | – | CCOc1nnc(-c2cc(NC(=O)c3ccnc(C(C)(C)C#N)c3)ccc2C)cc1N1CCOCC1 [Example 573, 2-(2-cyanopropan-2-yl)-N-(3-(6-ethoxy-5-morpholinopyridazin-3-yl)-4-methylphenyl)isonicotinamide] | – |
| – | 7.97 | Cc1ncc(NC(=O)c2ccnc(C(C)(C)F)c2)cc1-c1cncc(N2CCOCC2)c1 [Example 294, 2-(2-fluoropropan-2-yl)-N-(2-methyl-5′-morpholino-[3,3′-bipyridin]-5-yl)isonicotinamide] | – |
| – | 8.16 | Cc1ncc(NC(=O)c2ccnc(C(C)(C)F)c2)cc1-c1cnc(OCCO)c(N2CCOCC2)c1 [Example 299, 2-(2-fluoropropan-2-yl)-N-(6′-(2-hydroxyethoxy)-2-methyl-5′-morpholino-[3,3′-bipyridin]-5-yl)isonicotinamide] | – |
| – | 7.27 | Cc1ncc(NC(=O)c2ccnc(C(C)(C)C#N)c2)cc1-c1cc(N2CCOCC2)c(=O)n(C)n1 [Example 167, 2-(2-cyanopropan-2-yl)-N-(6-methyl-5-(1-methyl-5-morpholino-6-oxo-1,6-dihydropyridazin-3-yl)pyridin-3-yl)isonicotinamide] | – |
| 8.16 | – | Cc1ncc(NC(=O)c2ccnc(C3CC3)c2)cc1-c1cc(N2CCOCC2)c(=O)n(C)n1 [Example 682, 2-cyclopropyl-N-(6-methyl-5-(1-methyl-5-morpholino-6-oxo-1,6-dihydropyridazin-3-yl)pyridin-3-yl)isonicotinamide] | – |
| – | 8.96 | CCOc1ncc(-c2cc(C(=O)Nc3ccnc(C(F)(F)F)c3)ccc2C)cc1N1CCOCC1 [Example 306, 3-(6-ethoxy-5-morpholinopyridin-3-yl)-4-methyl-N-(2-(trifluoromethyl)pyridin-4-yl)benzamide] | – |
| – | 8.37 | Cn1cc(-c2cc(NC(=O)c3ccnc(C(C)(F)F)c3)ccc2F)cc(N2CCOCC2)c1=O [Example 419] | – |
| – | 7.97 | CCn1cc(-c2cc(NC(=O)c3ccnc(C(C)(C)C#N)c3)ccc2C)cc(N2CCOCC2)c1=O [Example 160, 2-(2-cyanopropan-2-yl)-N-(3-(1-ethyl-5-morpholino-6-oxo-1,6-dihydropyridin-3-yl)-4-methylphenyl)isonicotinamide] | – |
